From PubChem BioAssay AID256 (DTP/NCI, 2004)
Values joined by “and” are separate entries in the source; they are usually repeats but may differ in a detail not shown here. Equal values may be shown once. Toxic doses and inconclusive results are not listed. How the source made its calls: active means survival T/C of 150% or more; inactive means T/C below 125% in these data.

Tested on: CD2F1 mice, L1210 leukemia ip, survival T/C
Test: NCI In Vivo Anticancer Drug Screen. Data for tumor model L1210 Leukemia (intraperitoneal) in CD2F1 (CDF1) mice
Conditions: higher = longer survival
How it was run: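 Vehicle-treated tumor-bearing mice served as controls (C) for compound-treated mice (T). Reported figure is T divided by C.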

[1] = endpoint: mean survival time, dose: 25.0 mg/kg/injection, schedule: Q01DX009 (ip), vehicle: saline with Tween-80
[2] = endpoint: mean survival time, dose: 6.25 mg/kg/injection, schedule: Q04DX003 (ip), vehicle: saline with Tween-80
[3] = endpoint: mean survival time, dose: 12.5 mg/kg/injection, schedule: Q04DX003 (ip), vehicle: saline with Tween-80
[4] = endpoint: mean survival time, dose: 25.0 mg/kg/injection, schedule: Q04DX003 (ip), vehicle: saline with Tween-80

Measured: T/C

Cc1c2ccccc2cc2cccc[n+]12
inactive: endpoint: mean survival time, dose: 2.5 mg/kg/injection, schedule: Q01DX009 (ip), vehicle: saline 95 % of control and 100 % of control | endpoint: mean survival time, dose: 5.0 mg/kg/injection, schedule: Q01DX009 (ip), vehicle: saline 95 % of control and 101 % of control | endpoint: mean survival time, dose: 10.0 mg/kg/injection, schedule: Q01DX009 (ip), vehicle: saline 102 % of control and 110 % of control | endpoint: mean survival time, dose: 20.0 mg/kg/injection, schedule: Q01DX009 (ip), vehicle: saline 97 % of control and 106 % of control

ClCc1ccc(Cl)c(Cl)c1Cl
inactive: [1] 100 % of control | endpoint: mean survival time, dose: 50.0 mg/kg/injection, schedule: Q01DX009 (ip), vehicle: saline with Tween-80 100 % of control | endpoint: mean survival time, dose: 100.0 mg/kg/injection, schedule: Q01DX009 (ip), vehicle: saline with Tween-80 100 % of control

O=C(NC(Cc1ccc(I)cc1)C(=O)O)c1cccc(Br)c1 (stereo unspecified)
inactive: endpoint: median survival time, dose: 25.0 mg/kg/injection, schedule: Q01DX009 (ip), vehicle: Klucel (hydroxypropylcellulose) (HPC) 105 % of control | endpoint: median survival time, dose: 50.0 mg/kg/injection, schedule: Q01DX009 (ip), vehicle: Klucel (hydroxypropylcellulose) (HPC) 97 % of control | endpoint: median survival time, dose: 100.0 mg/kg/injection, schedule: Q01DX009 (ip), vehicle: Klucel (hydroxypropylcellulose) (HPC) 94 % of control | endpoint: median survival time, dose: 200.0 mg/kg/injection, schedule: Q01DX009 (ip), vehicle: Klucel (hydroxypropylcellulose) (HPC) 94 % of control

CC1=C(/C=C/C(C)(O)CC2=NC(C)(C)CO2)C(C)(C)CCC1 (stereo unspecified)
inactive: endpoint: mean survival time, dose: 25.0 mg/kg/injection, schedule: Q04DX002 (ip), vehicle: saline with Tween-80 101 % of control | endpoint: mean survival time, dose: 50.0 mg/kg/injection, schedule: Q04DX002 (ip), vehicle: saline with Tween-80 93 % of control | endpoint: mean survival time, dose: 100.0 mg/kg/injection, schedule: Q04DX002 (ip), vehicle: saline with Tween-80 93 % of control | endpoint: mean survival time, dose: 100.0 mg/kg/injection, schedule: Q04DX003 (ip), vehicle: saline with Tween-80 91 % of control | endpoint: mean survival time, dose: 400.0 mg/kg/injection, schedule: Q04DX003 (ip), vehicle: saline with Tween-80 86 % of control

COc1cccc(CCCC(=O)O)c1
inactive: endpoint: mean survival time, dose: 100.0 mg/kg/injection, schedule: Q04DX003 (ip), vehicle: Klucel (hydroxypropylcellulose) (HPC) 101 % of control | endpoint: mean survival time, dose: 200.0 mg/kg/injection, schedule: Q04DX003 (ip), vehicle: Klucel (hydroxypropylcellulose) (HPC) 101 % of control | endpoint: mean survival time, dose: 400.0 mg/kg/injection, schedule: Q04DX003 (ip), vehicle: Klucel (hydroxypropylcellulose) (HPC) 101 % of control

O=[N+]([O-])O.[Sc]
inactive: endpoint: mean survival time, dose: 6.25 mg/kg/injection, schedule: Q01DX009 (ip), vehicle: saline 93 % of control | endpoint: mean survival time, dose: 12.5 mg/kg/injection, schedule: Q01DX009 (ip), vehicle: saline 90 % of control | endpoint: mean survival time, dose: 25.0 mg/kg/injection, schedule: Q01DX009 (ip), vehicle: saline 88 % of control | endpoint: mean survival time, dose: 100.0 mg/kg/injection, schedule: Q01DX001 (ip), vehicle: saline 100 % of control | endpoint: mean survival time, dose: 400.0 mg/kg/injection, schedule: Q01DX001 (ip), vehicle: saline 93 % of control

O=S(=O)(F)c1cc(C[P+](c2ccccc2)(c2ccccc2)c2ccccc2)ccc1Cl
inactive: [2] 104 % of control | [3] 104 % of control | [4] 116 % of control

C[n+]1c2ccccc2c(Nc2ccc(NS(=O)(=O)CCCCN=C(N)N)cc2)c2ccc(N)cc21
active: endpoint: mean survival time, dose: 6.25 mg/kg/injection, schedule: Q01DX009 (ip), vehicle: water 314 % of control

CCOc1ccc(Nc2nc(C(Cl)(Cl)Cl)cc(C(Cl)(Cl)Cl)n2)cc1CN(CC)CC
inactive: endpoint: mean survival time, dose: 6.25 mg/kg/injection, schedule: Q01DX009 (ip), vehicle: saline with Tween-80 101 % of control | [2] 97 % of control | endpoint: mean survival time, dose: 12.5 mg/kg/injection, schedule: Q01DX009 (ip), vehicle: saline with Tween-80 100 % of control | [3] 101 % of control | [1] 102 % of control | [4] 95 % of control

C/C([O-])=N\[N+](C)(C)Cc1ccccc1
inactive: endpoint: mean survival time, dose: 100.0 mg/kg/injection, schedule: Q01DX001 (ip), vehicle: saline with Tween-80 95 % of control | endpoint: mean survival time, dose: 200.0 mg/kg/injection, schedule: Q01DX001 (ip), vehicle: saline with Tween-80 98 % of control | endpoint: mean survival time, dose: 400.0 mg/kg/injection, schedule: Q01DX001 (ip), vehicle: saline with Tween-80 102 % of control

CO[C@@]12[C@@H]3N[C@@H]3CN1C1=C(C(=O)C(Nc3ccc(S)cc3)=C(C)C1=O)[C@@H]2COC(N)=O
inactive: endpoint: mean survival time, dose: 1.5 mg/kg/injection, schedule: Q01DX001 (ip), vehicle: water 108 % of control | endpoint: mean survival time, dose: 3.0 mg/kg/injection, schedule: Q01DX001 (ip), vehicle: water 104 % of control | endpoint: mean survival time, dose: 6.0 mg/kg/injection, schedule: Q01DX001 (ip), vehicle: water 97 % of control | endpoint: mean survival time, dose: 12.0 mg/kg/injection, schedule: Q01DX001 (ip), vehicle: water 98 % of control | endpoint: mean survival time, dose: 16.7 mg/kg/injection, schedule: Q01DX001 (ip), vehicle: distilled water + Tween-80 92 % of control | endpoint: mean survival time, dose: 24.0 mg/kg/injection, schedule: Q01DX001 (ip), vehicle: distilled water + Tween-80 102 % of control | endpoint: mean survival time, dose: 24.0 mg/kg/injection, schedule: Q01DX001 (ip), vehicle: water 98 % of control | endpoint: mean survival time, dose: 34.2 mg/kg/injection, schedule: Q01DX001 (ip), vehicle: distilled water + Tween-80 104 % of control | endpoint: mean survival time, dose: 48.9 mg/kg/injection, schedule: Q01DX001 (ip), vehicle: distilled water + Tween-80 96 % of control
